Data taken from US9132126B2, “Phenyl-isoxazole derivatives and preparation process thereof” (priority 2011, dated 2015).
Values after ≈ are worked out from the molar mass of the structure shown.

What was measured:
[1] = test system: novel influenza virus (K09); assay: microbe, parasite or virus in culture; type: cell-based; details: for SI value K09: CC50/EC50; for EC50: MDCK, 72 h, read-out: Plaque reduction (Experimental Example 2) EC50
[2] = test system: influenza virus (K09) expressing GFP; type: cell-based; parameters: key: ◯ = effective; X = ineffective
[3] = Cytotoxicity assay using MTT; type: cell-based; details: dog, MDCK cells infected with influenza virus (K09), MDCK cell infected with K09; compound 24 hours; read-out: MTT assay (Experimental Example 3) CC50
Procedure: In this experiment, a cell was infected with a virus, and then the virus was directly treated with a compound so as to determine if the virus-infected cell has toxicity. For this, a cell (MDCK) was infected with an influenza virus (K09) for 1 hour, and treated with the compound with different concentrations for 24 hours. Then, the cell was treated with a MTT reagent for 1 hour. After 1 hour, a formazan crystal produced by the MTT reagent was dissolved in DMSO, and the absorbance was measured by an ELISA reader so as to determine CC50.
measured by MTT assay. A maximum concentration of the compound, at which the number of cells is reduced to half or more compared to that of a control group

[4] = test system: novel influenza virus (B/Field); assay: microbe, parasite or virus in culture; type: cell-based; details: for EC50: unidentified influenza virus
[5] = test system: H1N1 influenza virus (solomon); assay: microbe, parasite or virus in culture; type: cell-based; details: Solomon (H1N1); for EC50: Influenza A virus, read-out: EC50; for SI value: CC50/EC50
[6] = Acute toxicity test through oral administration in a rat; type: in vivo; details: Sprague-Dawley (SD), in vivo; male SD-Rat, single oral administration, 14 days observation
Procedure: The acute toxicity of the inventive compound was determined through oral administration in a rat. Since the compound is expected to be orally administered in a clinical situation, an oral administration route was selected. A male rat aged 6 weeks (SD-Rat, 220±30 g) was subjected to quarantine, and acclimated for 1 week under a condition of lighting of 12 hours (08:00˜20:00), and luminance of 150-300 Lux at 22±3° C. at a relative humidity of 50±20%, while being freely fed with feed and water. Each of a control group and an experimental group include 8 rats. The control group was orally administered with 0.5% HPMC, and the experimental group was orally administered with a material (different concentrations) suspended in 0.5% HPMC, by using a sonde in an amount in proportion to the measured weight of each individual.
The concentration of the drug administered to the experimental group was set as 2000 mg/kg (the highest concentration for a single dose administration in a non-clinical test), and 1000 mg/kg, and 500 mg/kg (with a common ratio). For 14 days from drug administration, clinical symptoms were observed while the weight change was measured. Test animals that died during the test were subjected to autopsy, and abnormalities of main organs (heart, liver, lung, spleen, kidney, and large intestine) were observed and recorded. On the last day of the test (on the 14th day from the administration), all individuals were subjected to autopsy, and the changes of the organs caused by a test material were observed and compared to those in the control group. In the control group, no rats had died, and abnormalities were not observed through autopsy.
Each group was orally administered in a concentration of 500 mg/kg, 1000 mg/kg, and 2000 mg/kg. For 14 days from the administration, according to the test method, clinical symptoms were observed. […] Also, in the groups administered in various amounts, no individuals died. […] Further, no abnormal responses were observed, and from the autopsy results, no peculiarities were observed.

## Nc1onc(-c2ccccc2F)c1C(=O)N1CCN(c2ccc(Cl)c(Cl)c2)CC1 [Example 75, (5-amino-3-(2-fluorophenyl)isoxazol-4-yl)(4-(3,4-dichlorophenyl)piperazine-1-yl)methanone]
[1]
  SI value K09: 12.5 to 25.0
  EC50: > 50 µg/mL
[2]
  GFP reduction (Experimental Example 1) effect: ◯
[3]
  CC50 at 24 h: 625 to 1250 µg/mL (≈ 1440 to 2870 µM)

## Cc1onc(-c2ccccc2OC(F)(F)F)c1C(=O)N1CCN(c2ccc(Cl)c(Cl)c2)CC1 [Example 35, (4-(3,4-dichlorophenyl)piperazine-1-yl)(5-methyl-3-(2-(trifluoromethoxy)phenyl)isoxazol-4-yl)methanone]
[1]
  EC50: 0.395 to 0.781 µg/mL (≈ 0.79 to 1.56 µM)
[2]
  GFP reduction (Experimental Example 1) effect: ◯
[3]
  CC50 at 24 h: 312 to 625 µg/mL (≈ 625 to 1250 µM)
[4]; B/Field, CC50/EC50
  SI value: 50 to 100
[4]
  EC50: 6.25 µg/mL (≈ 12.5 µM)
[5]
  EC50: 0.097 to 0.195 µg/mL (≈ 0.194 to 0.39 µM)
  SI value: 1602.564 to 6443.298
[6]
  LD50 at 14 days: > 2000 mg/kg

## COc1cccc(N2CCN(C(=O)c3c(-c4cccc(F)c4)noc3C)CC2)c1 [Example 12, (3-(3-fluorophenyl)-5-methylisoxazol-4-yl)(4-(3-methoxyphenyl)piperazine-1-yl)methanone]
[1]
  SI value K09: 25 to 50
  EC50: 3.12 µg/mL (≈ 7.9 µM)
[2]
  GFP reduction (Experimental Example 1) effect: ◯
[3]
  CC50 at 24 h: 78.1 to 156 µg/mL (≈ 198 to 395 µM)
[4]
  EC50: > 50 µg/mL
[5]
  EC50: 0.781 µg/mL (≈ 1.98 µM)
  SI value: 100.032 to 200.064
[6]
  LD50 at 14 days: > 2000 mg/kg

## COc1ccccc1N1CCN(C(=O)c2c(-c3ccccc3Cl)noc2N)CC1 [Example 61, (5-amino-3-(2-chlorophenyl)isoxazol-4-yl)(4-(2-methoxyphenyl)piperazine-1-yl)methanone]
[1]
  SI value K09: 159.94 to 319.89
  EC50: 0.39 µg/mL (≈ 0.945 µM)
[2]
  GFP reduction (Experimental Example 1) effect: ◯
[3]
  CC50 at 24 h: 62.5 to 125 µg/mL (≈ 151 to 303 µM)
[6]
  LD50 at 14 days: > 2000 mg/kg

## Nc1onc(-c2cccc(C(F)(F)F)c2)c1C(=O)N1CCN(c2ccccc2O)CC1 [Example 112, (5-amino-3-(3-(trifluoromethyl)phenyl)isoxazol-4-yl)(4-(2-hydroxyphenyl)piperazine-1-yl)methanone]
[1]
  SI value K09: 0.33 to 1.37
  EC50: 25 to 50 µg/mL (≈ 57.8 to 116 µM)
[2]
  GFP reduction (Experimental Example 1) effect: ◯
[3]
  CC50 at 24 h: 16.5 to 34.3 µg/mL (≈ 38.2 to 79.3 µM)

## Nc1onc(-c2cccc(F)c2)c1C(=O)N1CCN(c2ccccc2O)CC1 [Example 72, (5-amino-3-(3-fluorophenyl)isoxazol-4-yl)(4-(2-hydroxyphenyl)piperazine-1-yl)methanone]
[1]
  SI value K09: 0.31 to 1.25
  EC50: 25 to 50 µg/mL (≈ 65.4 to 131 µM)
[2]
  GFP reduction (Experimental Example 1) effect: ◯
[3]
  CC50 at 24 h: 15.6 to 31.2 µg/mL (≈ 40.8 to 81.7 µM)

## COc1cccc(N2CCN(C(=O)c3c(-c4ccc(OC(F)(F)F)cc4)noc3N)CC2)c1 [Example 100, (5-amino-3-(4-(trifluoromethoxy)phenyl)isoxazol-4-yl)(4-(3-methoxyphenyl)piperazine-1-yl)methanone]
[1]
  SI value K09: 0.49 to 12.57
  EC50: 29 to 37 µg/mL (≈ 62.7 to 80 µM)
[2]
  GFP reduction (Experimental Example 1) effect: ◯
[3]
  CC50 at 24 h: 18.4 to 46.5 µg/mL (≈ 39.9 to 101 µM)

## COc1cccc(N2CCN(C(=O)c3c(-c4cccc(F)c4)noc3N)CC2)c1 [Example 68, (5-amino-3-(3-fluorophenyl)isoxazol-4-yl)(4-(3-methoxyphenyl)piperazine-1-yl)methanone]
[1]
  SI value K09: 3.03 to 7.81
  EC50: 17.5 to 29 µg/mL (≈ 44.1 to 73.2 µM)
[2]
  GFP reduction (Experimental Example 1) effect: ◯
[3]
  CC50 at 24 h: 88.1 to 137 µg/mL (≈ 222 to 345 µM)

## COc1ccccc1N1CCN(C(=O)c2c(-c3cccc(OC(F)(F)F)c3)noc2C)CC1 [Example 53, (4-(2-methoxyphenyl)piperazine-1-yl)(5-methyl-3-(3-(trifluoromethoxy)phenyl)isoxazol-4-yl)methanone]
[1]
  SI value K09: 160<
  EC50: 3.12 µg/mL (≈ 6.76 µM)
[2]
  GFP reduction (Experimental Example 1) effect: ◯
[3]
  CC50 at 24 h: > 500 µg/mL

## Nc1onc(-c2cccc(C(F)(F)F)c2)c1C(=O)N1CCN(c2ccc(Cl)c(Cl)c2)CC1 [Example 107, (5-amino-3-(3-(trifluoromethyl)phenyl)isoxazol-4-yl)(4-(3,4-dichlorophenyl)piperazine-1-yl)methanone]
[1]
  SI value K09: 31.34 to 62.68
  EC50: 2.72 to 3.9 µg/mL (≈ 5.6 to 8.04 µM)
[2]
  GFP reduction (Experimental Example 1) effect: ◯
[3]
  CC50 at 24 h: 122 to 170 µg/mL (≈ 252 to 351 µM)
[6]
  LD50 at 14 days: > 2000 mg/kg

## Nc1onc(-c2cccc(OC(F)(F)F)c2)c1C(=O)N1CCN(c2ccc(Cl)c(Cl)c2)CC1 [Example 115, (5-amino-3-(3-(trifluoromethoxy)phenyl)isoxazol-4-yl)(4-(3,4-dichlorophenyl)piperazine-1-yl)methanone]
[1]
  SI value K09: 0.34 to 1.70
  EC50: 21 to 45 µg/mL (≈ 41.9 to 89.8 µM)
[2]
  GFP reduction (Experimental Example 1) effect: ◯
[3]
  CC50 at 24 h: 15.5 to 35.8 µg/mL (≈ 30.9 to 71.3 µM)

## Nc1onc(-c2ccccc2C(F)(F)F)c1C(=O)N1CCN(c2ccc(Cl)c(Cl)c2)CC1 [Example 91, (5-amino-3-(2-(trifluoromethyl)phenyl)isoxazol-4-yl)(4-(3,4-dichlorophenyl)piperazine-1-yl)methanone]
[1]
  SI value K09: 0.71 to 2.39
  EC50: 12.4 to 25.8 µg/mL (≈ 25.7 to 53.2 µM)
[2]
  GFP reduction (Experimental Example 1) effect: ◯
[3]
  CC50 at 24 h: 18.4 to 29.9 µg/mL (≈ 37.8 to 61.6 µM)

## Cc1onc(-c2ccc(OC(F)(F)F)cc2)c1C(=O)N1CCN(c2ccc(Cl)c(Cl)c2)CC1 [Example 27, (4-(3,4-dichlorophenyl)piperazine-1-yl)(5-methyl-3-(4-(trifluoromethoxy)phenyl)isoxazol-4-yl)methanone]
[1]
  SI value K09: 2.5 to 8.13
  EC50: 2.4 to 3.9 µg/mL (≈ 4.8 to 7.8 µM)
[2]
  GFP reduction (Experimental Example 1) effect: ◯
[3]
  CC50 at 24 h: 9.77 to 19.5 µg/mL (≈ 19.5 to 39 µM)
[6]
  LD50 at 14 days: > 2000 mg/kg

## Cc1onc(-c2cccc(C(F)(F)F)c2)c1C(=O)N1CCN(c2ccc(Cl)c(Cl)c2)CC1 [Example 43, (4-(3,4-dichlorophenyl)piperazine-1-yl)(5-methyl-3-(3-(trifluoromethyl)phenyl)isoxazol-4-yl)methanone]
[1]
  EC50: > 50 µg/mL
[2]
  GFP reduction (Experimental Example 1) effect: X
[3]
  CC50 at 24 h: 2500 µg/mL (≈ 5160 µM)

## COc1cccc(N2CCN(C(=O)c3c(-c4cccc(OC(F)(F)F)c4)noc3N)CC2)c1 [Example 116, (5-amino-3-(3-(trifluoromethoxy)phenyl)isoxazol-4-yl)(4-(3-methoxyphenyl)piperazine-1-yl)methanone]
[1]
  SI value K09: 0.42 to 1.70
  EC50: 15 to 32 µg/mL (≈ 32.4 to 69.2 µM)
[2]
  GFP reduction (Experimental Example 1) effect: ◯
[3]
  CC50 at 24 h: 13.7 to 25.6 µg/mL (≈ 29.5 to 55.4 µM)

## Nc1onc(-c2cccc(F)c2)c1C(=O)N1CCN(c2ccc(Cl)c(Cl)c2)CC1 [Example 67, (5-amino-3-(3-fluorophenyl)isoxazol-4-yl)(4-(3,4-dichlorophenyl)piperazine-1-yl)methanone]
[1]
  SI value K09: 2.59 to 8.85
  EC50: 2.4 to 3.9 µg/mL (≈ 5.51 to 8.96 µM)
[2]
  GFP reduction (Experimental Example 1) effect: ◯
[3]
  CC50 at 24 h: 10.1 to 21.2 µg/mL (≈ 23.2 to 48.8 µM)

## Cc1onc(-c2cccc(OC(F)(F)F)c2)c1C(=O)N1CCN(c2ccc(Cl)c(Cl)c2)CC1 [Example 51, (4-(3,4-dichlorophenyl)piperazine-1-yl)(5-methyl-3-(3-(trifluoromethoxy)phenyl)isoxazol-4-yl)methanone]
[1]
  SI value K09: 3.91 to 10.80
  EC50: 2.4 to 3.9 µg/mL (≈ 4.8 to 7.8 µM)
[2]
  GFP reduction (Experimental Example 1) effect: ◯
[3]
  CC50 at 24 h: 15.2 to 25.9 µg/mL (≈ 30.5 to 51.8 µM)

## COc1ccccc1N1CCN(C(=O)c2c(-c3cccc(C(F)(F)F)c3)noc2N)CC1 [Example 109, (5-amino-3-(3-(trifluoromethyl)phenyl)isoxazol-4-yl)(4-(2-methoxyphenyl)piperazine-1-yl)methanone]
[1]
  SI value K09: 42.07 to 125.4
  EC50: 1.52 to 3.5 µg/mL (≈ 3.4 to 7.84 µM)
[2]
  GFP reduction (Experimental Example 1) effect: ◯
[3]
  CC50 at 24 h: 147 to 191 µg/mL (≈ 330 to 427 µM)
[6]
  LD50 at 14 days: > 2000 mg/kg

## CCOC(=O)C1CCN(C(=O)c2c(-c3ccccc3Cl)noc2N)CC1 [Example 122, ethyl-1-(5-amino-3-(2-chlorophenyl)isoxazol-4-carbonyl)piperidine-4-carboxylate]
[1]
  SI value K09: 18.89 to 71.27
  EC50: 4.5 to 8.5 µg/mL (≈ 11.9 to 22.5 µM)
[2]
  GFP reduction (Experimental Example 1) effect: ◯
[3]
  CC50 at 24 h: 161 to 321 µg/mL (≈ 425 to 849 µM)
[6]
  LD50 at 14 days: > 2000 mg/kg
